The source of these data is patent US4064235A, “Dopamine derivative compounds, preparation thereof and medicine containing same” (Eisai Co., Ltd., priority 1975, dated 1977).

One assay relates to renal blood flow rate. Briefly: Measurement of the renal blood flow increasing activity in anesthetized dogs. It counts as in vivo. The note with it: for Duration Time of Activity / Renal Blood Flow Rate Increase Ratio (%): 1 mg/Kg/min into the crotch vein continuously over 3 minutes; for Renal Blood Flow Rate Increase Ratio (%): increase at highest flow rate relative to flow rate before administration; for intensity of the activity and activity duration compared with known compound A: dogs, 1 mg/Kg/min for 3 minutes. How it is done: Measurement of the renal blood flow increasing activity. Compounds Tested:
Crossbred adult dogs (irrespective of the sex) having a body weight of about 15 Kg were used.
The test animal was anesthetized by an intravenous injection of pentobarbital sodium salt (30 mg/Kg) and the abdominal region was fixed. The back region was opened and a probe of a rectangular wave electromagnetic flow meter (Model MF-26 manufactured by Nippon Koden K. K.) was attached to the artery of the left kidney to determine the renal blood flow rate (R. B. F.).
Each test compound was dissolved in distilled water and administered to the test animal from a vinyl resin fine tube inserted and fixed into the crotch vein. The amount administered was 1 mg/Kg/min. and the administration was conducted continuously over a period of 3 minutes.
The degree of increase of the renal blood flow rate by administration of the test compound was expressed in terms of the increase ratio (%), namely the ratio of the increase of the flow rate (when the flow rate was highest) to the flow rate before administration of the test compound. The duration of the activity was simultaneously examined.

Assay [1] has as its system renal blood flow. Briefly: tracing experiment on renal blood flow promoting activity of isoleucyl dopamine. It counts as in vivo. The source says:
Because of this specific activity, it has been considered to use dopamine for improving renal insufficiency accompanied by hyperpiesia or cardiac insufficiency and other similar diseases. However, since dopamine is promptly converted to norepinephrine or the like by metabolism and the activity is insufficient in duration, it has been difficult to put this compound into practical use.

For assay [2], the system named is renal blood flow. Particulars: cited from earlier work.

For the compound `CC(=O)O.CCC(C)C(N)C(=O)NC(C(=O)NCCc1ccc(O)c(O)c1)C(C)C` (stereo not drawn) [Compound A of Present Invention, n-l-isoleucylvalyl dopamine acetate], in the assay on renal blood flow rate (anesthetized dogs), the “Duration Time of Activity” value stood at 10 min and the “Renal Blood Flow Rate Increase Ratio (%)” value came out at 33%. Further, the “intensity of the activity and activity duration compared with known compound A” value (“intensity … compared with known compound A” for short) with renal blood flow rate is on record as “excellent over the known compound A”.
On the same counts, the results for `CC(=O)O.NCC(=O)NCC(=O)N1CCC[C@H]1C(=O)NCCc1ccc(O)c(O)c1` [Compound E of Present Invention, N-Glycylglycyl-L-prolyl dopamine acetate] are 30 min, 36% and “excellent over the known compound A”.
Consider “N-Glycyl-L-glutamyl dopamine acetate [Compound B of Present Invention]”, for which, in the assay with renal blood flow rate (anesthetized dogs), the “Duration Time of Activity” value amounted to 60 min and the “Renal Blood Flow Rate Increase Ratio (%)” value came to 33%. Further, the “intensity … compared with known compound A” value with renal blood flow rate is “excellent over the known compound A”.
On the same counts, the results for `CC(=O)O.CC(C)C[C@H](NC(=O)CNC(=O)CN)C(=O)NCCc1ccc(O)c(O)c1` [Compound D of Present Invention, N-Glycylglycyl-L-leucyl dopamine acetate] are 20 min, 37% and “excellent over the known compound A”.
As for `CC(=O)O.CC[C@H](C)[C@H](N)C(=O)NCCc1ccc(O)c(O)c1` [Known Compound A, N-L-Isoleucyl dopamine acetate], in the assay with renal blood flow rate (anesthetized dogs), the “Duration Time of Activity” value is 6 min and the “Renal Blood Flow Rate Increase Ratio (%)” value was 10%. In the assay on renal blood flow [1], the “activity retention time compared with dopamine” value was “longer than that of dopamine” and the “renal blood flow promoting activity” value is reported as “low”. Also, in the assay with renal blood flow [2] (literature: Am. Chem. So., 165, Meet. MEDI. 11, 1973), the “durability of renal blood flow increasing activity compared with dopamine” value is listed as “more durable than that of dopamine”.
As to `CC(=O)O.NCC(=O)N1CCC[C@H]1C(=O)NCCc1ccc(O)c(O)c1` [Compound C of Present Invention, N-Glycyl-L-prolyl dopamine acetate], in the assay with renal blood flow rate (anesthetized dogs), the “Duration Time of Activity” value came to 60 min and the “Renal Blood Flow Rate Increase Ratio (%)” value is given as 30%. For the same compound, the “intensity … compared with known compound A” value in the assay with renal blood flow rate is “excellent over the known compound A”.
For `NCCc1ccc(O)c(O)c1` [dopamine], the “renal blood flow rate change by administration” value in the assay with renal blood flow rate (anesthetized dogs) is reported as “increased”. Also, in the assay on renal blood flow [2] (literature: Circulation Research, vol. XVI, 1965), the “activity of increasing the renal blood flow” value is “specific activity of increasing the renal blood flow”.
